In PubChem BioAssay (NCI):
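Values below derive from 48-hour exposures of cells grown in 96-well plates, with endpoints linearly interpolated between the two concentrations bracketing the appropriate inhibition level. GI50 = concentration required for 50% inhibition of growth. TGI denotes the concentration required for complete inhibition of growth.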

Legend:
Assay in all cases: NCI-60 cell line screen, 48 h
[1] = system: HCC-2998 colon
[2] = system: SK-MEL-5 melanoma
[3] = system: HT29 colon
[4] = system: OVCAR-5 ovarian
[5] = system: UACC-62 melanoma
[6] = system: SN12C renal
[7] = system: SF-539 CNS
[8] = system: SF-295 CNS
[9] = system: TK-10 renal
[10] = system: T-47D breast

Row | SMILES | TGI [1] [µM] | TGI [2] [µM] | TGI [3] [µM] | TGI [4] [µM] | TGI [5] [µM] | TGI [6] [µM] | TGI [7] [µM] | TGI [8] [µM] | TGI [9] [µM] | GI50 [1] [nM] | GI50 [2] [nM] | GI50 [3] [µM] | GI50 [4] [nM] | GI50 [10] [nM] | TGI [10] [µM] | GI50 [5] [nM] | GI50 [6] [nM] | GI50 [7] [nM] | GI50 [9] [µM] | GI50 [8] [nM]
1 | CCc1ccccc1NC(=O)c1cccc([N+](=O)[O-])c1O | > 100 | 33.9 | > 100 | 65.1 | > 100 | > 100 | > 100 | 32.2 |  |  |  |  |  |  |  |  |  |  |  | 
2 | O=c1/c(=C/c2ccccc2[N+](=O)[O-])sc2nnc(-c3cccnc3)n12 | > 100 | > 100 | > 100 | > 100 | > 100 | > 100 | > 100 | > 100 | > 100 |  |  |  |  |  |  |  |  |  |  | 
3 | N#CNC(N)=NCc1ccccc1 | > 100 | > 100 | > 100 | > 100 |  | > 100 | > 100 | > 100 | > 100 |  |  |  |  |  |  |  |  |  |  | 
4 | CCn1cc(C(=O)O)c(=O)c2cc(F)c(N3CCN(S(=O)(=O)c4cccc5ccccc45)CC3)cc21 | 61.9 | 5.17 | > 100 | > 100 | 7.73 | > 100 | 8.53 |  | > 100 | 4260 | 2240 | 3.95 | 3380 | 3350 | > 100 | 2250 | 2590 | 2430 | 7.6 | 
5 | COc1cc([C@@H]2c3cc4c(cc3[C@@H](NC(=O)c3ccc(C#N)cc3)C3COC(=O)[C@@H]32)OCO4)cc(OC)c1O (stereo not given in full) | 4.18 |  | 4.23 | 8.53 | 2.19 | 1.51 | 1.66 | 11.8 | 4.86 |  |  |  |  |  |  |  |  |  |  | 
6 | O=C1NC(=O)c2c1n(Cc1ccccc1)c(=O)n2Cc1ccccc1 | > 100 | > 100 | > 100 | > 100 | > 100 | > 100 | > 100 | > 100 | > 100 |  |  |  |  |  |  |  |  |  |  | 
7 | CCCCCCCCCCCC[N+]1(CCCCCCCCCCCC)CCCC(C)C1 (stereo not given) | 1.38 |  | 1.09 | 2.29 | 1.27 |  |  | 1.29 |  | 303 |  | 0.186 | 1060 |  |  | 244 |  |  |  | 259
8 | CCCCCCCC(=O)OCC(COC(=O)C(C)(C)C)OC(=O)Cc1ccccc1 (stereo not given) | > 100 | > 100 |  | > 100 | > 100 | > 100 |  | > 100 | > 100 |  |  |  |  |  |  |  |  |  |  | 
9 | O=C(Nc1ccc(N=C=S)cc1Cl)c1cc(Br)cc(Br)c1O |  | 46.5 | 38 | 50.9 | 35.2 | 24.1 | 54.6 | > 100 | 69.5 |  |  |  |  |  | > 100 |  |  |  |  | 
10 | CC(Br)C(=O)NC(CO)C(=O)O (stereo not given) |  | > 100 | > 100 | > 100 | > 100 | > 100 | > 100 | > 100 | > 100 |  |  |  |  |  | > 100 |  |  |  |  | 
11 | CCOC(=O)c1nc(C)oc1C(F)(F)F | > 100 |  | > 100 | > 100 | > 100 | > 100 | > 100 | > 100 | > 100 |  |  |  |  |  |  |  |  |  |  | 
12 | O=c1cc(O)cc2n1CCC2 | > 100 | > 100 | > 100 | > 100 | > 100 | > 100 | > 100 | > 100 | > 100 |  |  |  |  |  |  |  |  |  |  | 
13 | COc1nc2c(c(O)c(C)c(=O)n2OC2OCC(OC(C)=O)C(OC(C)=O)C2OC(C)=O)c(=O)n1C (stereo not given) | > 100 | > 100 | > 100 | > 100 | > 100 | > 100 | > 100 | > 100 | > 100 |  |  |  |  |  |  |  |  |  |  | 
14 | COC(=O)C1C(=O)O[C@@H](c2ccc3c(c2)OCO3)C1C(=O)OC (mixture of isomers) | > 100 | > 100 | > 100 | > 100 | > 100 | > 100 | > 100 | > 100 | > 100 |  |  |  |  |  |  |  |  |  |  | 
15 | COc1cc(C)c(CC/C(C)=C/Cc2cc(O)ccc2O)c(C)c1C | > 25 | > 25 | > 25 |  |  | > 25 | > 25 | > 25 | > 25 |  |  |  |  |  |  |  |  |  |  | 
16 | Cc1nc(N)nc(CCC(=O)Nc2cccc(C(F)(F)F)c2)c1-c1ccc(Cl)cc1 | > 100 | > 100 | > 100 | > 100 | > 100 | > 100 | > 100 | > 100 | > 100 |  |  |  |  |  |  |  |  |  |  | 
17 | Cc1ccc(S(=O)(=O)OCC/C(=C\[Si](C)(C)C)c2ccccc2)cc1 | > 100 | > 100 | > 100 | > 100 | > 100 | > 100 | > 100 | > 100 | > 100 |  |  |  |  |  |  |  |  |  |  | 
18 | N#CC(C(=O)C(=O)Nc1c(Cl)cccc1Cl)c1ccccc1 (stereo not given) | > 100 | > 100 | > 100 |  | > 100 | > 100 | > 100 |  | > 100 | > 100000 | > 100000 | > 100 | > 100000 |  |  | > 100000 | > 100000 | > 100000 | > 100 | > 100000
19 | COc1ccc2sc3c(NCCCN)nc4ccccc4c3c(=O)c2c1 | 3.34 | 3.37 |  | 3.28 | 3.21 | 3.11 | 3.17 | 3.36 |  | 1660 | 1820 |  | 1680 | 1740 | 3.65 | 1720 | 1630 | 1750 |  | 1790
20 | OCc1cc2c(cn1)[nH]c1ccc(NCc3ccccc3)cc12 | 58.9 | 25.6 | 32.2 | > 100 | 42.7 | > 100 | > 100 | 59.9 | 85.8 |  |  |  |  |  |  |  |  |  |  | 
21 | O=[N+]([O-])c1ccc(Cl)c2c([N+](=O)[O-])cccc12 | > 10 | > 10 | > 10 |  | > 10 | > 10 | 5.91 | > 10 | > 10 |  |  |  |  |  | > 10 |  |  |  |  | 
